Measured values reported in the supplement of paper PMC11208160.

Test: recombinant UMI read abundance after kanamycin selection (control-corrected) (log10(CPM+1)); higher = more efficient recombination; extreme values may be limits of the assay; sequences stand for … in AGTGCAGAGAAAATCGGCCAGTTTTCTCTGCCTGCAGTCCGCATGCCGTGGGACCCCTTGGGTTCTAACCTGTTGCCTAGATTTATGCAGCGGACTGCCTTTCTCCCAAAGTGATAAACCGG…AGGTTGGTTTCACT; site = the 11-nt donor
In short: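 Counts of recombinant UMIs were reported as log10(CPM+1). Before that, they were converted to CPM, averaged over replicates and scaled using control-derived factors. They came from PCR across the donor–target junction after Escherichia coli carrying the pair library and target plasmid was plated on IPTG (0.07 mM) plus kanamycin, or unselected, in two replicates each.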
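Also: IS621 bridge recombinase in Escherichia coli cells against a fixed T5 target plasmid.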

Row | Sequence | recombinant UMI read abundance (log10)
1 | CCCGGTCCATGGACCGGTTTTCCCGGTAATCCGTATTTGCT (site CCCGGTCCTGG) | 0
2 | CCCGGTCCATGGACCGGTTTTCCCGGTAATCCGTATTTGCT (site CCCGGTCCTTG) | 0
3 | CCCGGTCCATGGACCGGTTTTCCCGGTAATCCGTATTTGTA (site CCCGGTCCTTA) | 0
4 | CCCGGTCCATGGACCGGTTTTCCCGGTAATCCGTATTTGTA (site CCCGGTCCTTC) | 0.0127
5 | CCCGGTCCATGGACCGGTTTTCCCGGTAATCCGTATTTGTA (site CCCGGTCCTTG) | 0
6 | CCCGGTCCATGGACCGGTTTTCCCGGTAATCCGTATTTGTA (site CCCGGTCCTTT) | 0.041
7 | CCCGTATCATGGACCGGTTTTCCCGGTAATCCGTATTTGGT (site CCCGTATCTAC) | 0.563
8 | CCCGTCGCATGGACCGGTTTTCCCGGTAATCCGTATTTGCT (site CCCGTCGCTAG) | 0.795
9 | CCCTACACATGGACCGGTTTTCCCGGTAATCCGTATTTGTA (site CCCAACACTTA) | 0.0262
10 | CCCTACACATGGACCGGTTTTCCCGGTAATCCGTATTTGTA (site CCCCACACTTA) | 0.00329
11 | CCCTACACATGGACCGGTTTTCCCGGTAATCCGTATTTGTA (site CCCGACACTTA) | 0.0499
12 | CCCTACACATGGACCGGTTTTCCCGGTAATCCGTATTTGTA (site CCCTACACTTA) | 0.0328
13 | CCCTAGCCATGGACCGGTTTTCCCGGTAATCCGTATTTGTC (site CCCTAGCCTGA) | 0.265
14 | CCCTAGCCATGGACCGGTTTTCCCGGTAATCCGTATTTGTC (site CCCTAGCCTGC) | 0
15 | CCCTAGCCATGGACCGGTTTTCCCGGTAATCCGTATTTGTC (site CCCTAGCCTGG) | 0
16 | CCCTAGCCATGGACCGGTTTTCCCGGTAATCCGTATTTGTC (site CCCTAGCCTGT) | 0
17 | CCCTATTCATGGACCGGTTTTCCCGGTAATCCGTATTTGGA (site CCCTATTCTTC) | 0.0708
18 | CCCTTATCATGGACCGGTTTTCCCGGTAATCCGTATTTGCA (site CCCTTATCTTG) | 2.15
19 | CCCTTATCATGGACCGGTTTTCCCGGTAATCCGTATTTGTC (site CCCATATCTGA) | 0
20 | CCCTTATCATGGACCGGTTTTCCCGGTAATCCGTATTTGTC (site CCCCTATCTGA) | 0
21 | CCCTTATCATGGACCGGTTTTCCCGGTAATCCGTATTTGTC (site CCCGTATCTGA) | 0
22 | CCCTTATCATGGACCGGTTTTCCCGGTAATCCGTATTTGTC (site CCCTTATCTGA) | 0.909
23 | CCCTTCTCATGGACCGGTTTTCCCGGTAATCCGTATTTGAG (site CCCTTCTCTCA) | 0.00351
24 | CCCTTCTCATGGACCGGTTTTCCCGGTAATCCGTATTTGAG (site CCCTTCTCTCC) | 0.00506
25 | CCCTTCTCATGGACCGGTTTTCCCGGTAATCCGTATTTGAG (site CCCTTCTCTCG) | 0.01

Row | Sequence | recombinant UMI read abundance (log10)
26 | CCCTTCTCATGGACCGGTTTTCCCGGTAATCCGTATTTGAG (site CCCTTCTCTCT) | 0.00554
27 | CCCTTCTCATGGACCGGTTTTCCCGGTAATCCGTATTTGCG (site CCCTTCTCTCA) | 0.02
28 | CCCTTCTCATGGACCGGTTTTCCCGGTAATCCGTATTTGCG (site CCCTTCTCTCC) | 0.195
29 | CCCTTCTCATGGACCGGTTTTCCCGGTAATCCGTATTTGCG (site CCCTTCTCTCG) | 1.08
30 | CCCTTCTCATGGACCGGTTTTCCCGGTAATCCGTATTTGCG (site CCCTTCTCTCT) | 0.061
31 | CCCTTCTCATGGACCGGTTTTCCCGGTAATCCGTATTTGGA (site CCCTTCTCTAC) | 0
32 | CCCTTCTCATGGACCGGTTTTCCCGGTAATCCGTATTTGGA (site CCCTTCTCTCC) | 0.0081
33 | CCCTTCTCATGGACCGGTTTTCCCGGTAATCCGTATTTGGA (site CCCTTCTCTGC) | 0
34 | CCCTTCTCATGGACCGGTTTTCCCGGTAATCCGTATTTGGA (site CCCTTCTCTTC) | 0.21
35 | CCCTTGCCATGGACCGGTTTTCCCGGTAATCCGTATTTGCC (site CCCTAGCCTGG) | 0
36 | CCCTTGCCATGGACCGGTTTTCCCGGTAATCCGTATTTGCC (site CCCTCGCCTGG) | 0
37 | CCCTTGCCATGGACCGGTTTTCCCGGTAATCCGTATTTGCC (site CCCTGGCCTGG) | 0
38 | CCCTTGCCATGGACCGGTTTTCCCGGTAATCCGTATTTGCC (site CCCTTGCCTGG) | 0
39 | CCCTTGTCATGGACCGGTTTTCCCGGTAATCCGTATTTGGG (site CCCTTATCTCC) | 0.393
40 | CCCTTGTCATGGACCGGTTTTCCCGGTAATCCGTATTTGGG (site CCCTTCTCTCC) | 0.00922
41 | CCCTTGTCATGGACCGGTTTTCCCGGTAATCCGTATTTGGG (site CCCTTGTCTCC) | 0.297
42 | CCCTTGTCATGGACCGGTTTTCCCGGTAATCCGTATTTGGG (site CCCTTTTCTCC) | 0.0116
43 | CCCTTTACATGGACCGGTTTTCCCGGTAATCCGTATTTGCT (site CCATTTACTAG) | 0
44 | CCCTTTACATGGACCGGTTTTCCCGGTAATCCGTATTTGCT (site CCCTTTACTAG) | 1.76
45 | CCCTTTACATGGACCGGTTTTCCCGGTAATCCGTATTTGCT (site CCGTTTACTAG) | 0
46 | CCCTTTACATGGACCGGTTTTCCCGGTAATCCGTATTTGCT (site CCTTTTACTAG) | 0
47 | CCGAAACCATGGACCGGTTTTCCCGGTAATCCGTATTTGTT (site CCGAAACCTAA) | 0
48 | CCGAAACCATGGACCGGTTTTCCCGGTAATCCGTATTTGTT (site CGGAATCCTAA) | 0.00312
49 | CCGAAGGCATGGACCGGTTTTCCCGGTAATCCGTATTTGTG (site CCGAAGGCTCA) | 0.495
50 | CCGAATACATGGACCGGTTTTCCCGGTAATCCGTATTTGGC (site CCAAATACTGC) | 0

Row | Sequence | recombinant UMI read abundance (log10)
51 | CCGAATACATGGACCGGTTTTCCCGGTAATCCGTATTTGGC (site CCCAATACTGC) | 0
52 | CCGAATACATGGACCGGTTTTCCCGGTAATCCGTATTTGGC (site CCGAATACTGC) | 0
53 | CCGAATACATGGACCGGTTTTCCCGGTAATCCGTATTTGGC (site CCTAATACTGC) | 0
54 | CCGACATCATGGACCGGTTTTCCCGGTAATCCGTATTTGCT (site CAGACATCTAG) | 0
55 | CCGACATCATGGACCGGTTTTCCCGGTAATCCGTATTTGCT (site CCGACATCTAG) | 0.421
56 | CCGACATCATGGACCGGTTTTCCCGGTAATCCGTATTTGCT (site CGGACATCTAG) | 0
57 | CCGACATCATGGACCGGTTTTCCCGGTAATCCGTATTTGCT (site CTGACATCTAG) | 0
58 | CCGACCTCATGGACCGGTTTTCCCGGTAATCCGTATTTGGT (site CCGACCTCTAC) | 0.121
59 | CCGATATCATGGACCGGTTTTCCCGGTAATCCGTATTTGTC (site CCAATATCTGA) | 0
60 | CCGATATCATGGACCGGTTTTCCCGGTAATCCGTATTTGTC (site CCCATATCTGA) | 0
61 | CCGATATCATGGACCGGTTTTCCCGGTAATCCGTATTTGTC (site CCGATATCTGA) | 1.21
62 | CCGATATCATGGACCGGTTTTCCCGGTAATCCGTATTTGTC (site CCTATATCTGA) | 0
63 | CCGATGCCATGGACCGGTTTTCCCGGTAATCCGTATTTGGA (site CCGATGCCTTC) | 0.0103
64 | CCGATTCCATGGACCGGTTTTCCCGGTAATCCGTATTTGTT (site CCGATTCCTAA) | 0
65 | CCGATTCCATGGACCGGTTTTCCCGGTAATCCGTATTTGTT (site CGGAATCCTAA) | 0.00507
66 | CCGCAGTCATGGACCGGTTTTCCCGGTAATCCGTATTTGGC (site CCGCAGTCTGC) | 0
67 | CCGCATACATGGACCGGTTTTCCCGGTAATCCGTATTTGTT (site CCGCATACTAA) | 0.39
68 | CCGGAAGCATGGACCGGTTTTCCCGGTAATCCGTATTTGAC (site CCGGAAGCTGT) | 0.161
69 | CCGGTAGCATGGACCGGTTTTCCCGGTAATCCGTATTTGAC (site CCGGTAGCTGT) | 2.38
70 | CCGGTATCATGGACCGGTTTTCCCGGTAATCCGTATTTGAC (site CCGGTATCTGT) | 1.45
71 | CCGGTATCATGGACCGGTTTTCCCGGTAATCCGTATTTGAC (site CTAGTATCTGT) | 0
72 | CCGGTGGCATGGACCGGTTTTCCCGGTAATCCGTATTTGAC (site CCGGTGGCTGT) | 1.58
73 | CCGTCAGCATGGACCGGTTTTCCCGGTAATCCGTATTTGTG (site CCGTAAGCTCA) | 0
74 | CCGTCAGCATGGACCGGTTTTCCCGGTAATCCGTATTTGTG (site CCGTCAGCTCA) | 0.00531
75 | CCGTCAGCATGGACCGGTTTTCCCGGTAATCCGTATTTGTG (site CCGTGAGCTCA) | 0.00599
